Read-outs that look alike come from different tables or passages of the source.
What was measured:
[1] = test system: cat fleas; experiment: Survival of dieldrin-exposed fleas from the heterozygous population, sorted by sequenced genotype at amino acid 285; type: in vivo, Ctenocephalides felis; conditions: 10 mM and 50 mM dieldrin, pooled
Experimental: The following method was used to determine the genotype of individual fleas. Individual fleas were physically crushed with a pipette tip in a microcentrifuge tube with 30 μl of DNAzol, available from Gibco BRL, Rockville, Md., then heated to 95° C. for 5 minutes. The mixture was centrifuged for 2 minutes, the liquid was removed and DNA was precipitated with ethanol. The precipitated DNA was centrifuged, the ethanol was removed and the pellet was resuspended in 30 μl of distilled water. […] The following PCR thermocycling and reaction conditions were used (1) one cycle of 95° C. for 30 seconds, (2) 35 cycles of 94° C. for 10 seconds, 52° C. for 30 seconds, and 72° C. 30 seconds, in reactions containing 1× AmpliTaq Buffer, 2.0 U AmpliTaq polymerase, available from Perkin Elmer, Foster City, Calif., 0.2 mM dNTP's, and 0.5 uM each primer.
The PCR product was separated by gel electrophoresis and purified using a Qiaquick™ column, available from Qiagen to produce an approximately 240-nucleotide molecule. The 240-nucleotide product was then sequenced using primers 285for and 285rev and dRhodamine terminator chemistry and the sequence was read to determine whether the individual was homozygous for serine or alanine, or a heterozygote.
(§1) Dieldrin was dissolved in dimethylsulfoxide (DMSO) at concentrations ranging from 0.001 mM to 1000 mM. About 1 ul of dissolved dieldrin from each concentration was spotted onto a 6 mm diameter GF/C filter disk (Whatman, Inc. Clifton, N.J.) in the bottom of a 4 ml screw-top glass vial and allowed to air dry for 24 hours. Negative control vials were prepared in the same manner except that no dieldrin was dissolved in the DMSO. Each dieldrin concentration was tested in triplicate for each of the three flea populations. About 25 newly emerged cat fleas were sedated at 4° C. and transferred to each vial. Each vial was sealed with a thin, perforated Teflon septum secured by an open top screw cap and held vertically in the dark. After about 30 hours, the healthy live, moribund, and dead fleas in each vial were counted.

[2] = test system: cat fleas; experiment: Dieldrin filter-disk vial exposure of fleas, mortality (LC50) per flea population; conditions: Ctenocephalides felis, in Felis catus, 30 h, about 1 ul of DMSO solution on filter disk in vial, about 30 hours
Experimental: as §1

ClC1=C(Cl)[C@]2(Cl)[C@@H]3[C@@H]4C[C@@H]([C@H]5O[C@@H]45)[C@@H]3[C@@]1(Cl)C2(Cl)Cl [dieldrin]
number of dead fleas ([1]; of 1 homozygous alanine flea): 1 | number of dead fleas ([1]; of 21 homozygous serine fleas): 4 | number of live fleas ([1]; of 21 homozygous serine fleas): 16 | number of moribund fleas ([1]; of 21 homozygous serine fleas): 1 | number of dead fleas ([1]; of 29 heterozygotes): 24 | number of live fleas ([1]; of 29 heterozygotes): 2 | number of moribund fleas ([1]; of 29 heterozygotes): 3 | LC50 ([2]; read-out: LC50 (concentration of dieldrin at which 50% of the fleas were killed), heterozygous alanine/serine flea population (amino acid 285)): 1 mM | LC50 ([2]; read-out: LC50 (concentration of dieldrin at which 50% of the fleas were killed), homozygous alanine flea population (amino acid 285)): 0.2 mM | LC50 ([2]; read-out: LC50 (concentration of dieldrin at which 50% of the fleas were killed), homozygous serine flea population (amino acid 285)): 30 mM

From US8268976B2, “Flea GABA receptor subunit nucleic acid molecules” (Heska Corporation, priority 2000, dated 2012)
